From EP0007672A1, “Isocyanoalkenes, process and useful intermediates for their preparation, pharmaceutical and fungicidal preparations containing those isocyanoalkenes and the use of the fungicidal preparations in agriculture” (GIST-BROCADES N.V., priority 1978, dated 1980)
In brackets after ≈: the same amount, converted by molar mass. Read-outs that look alike come from different tables or passages of the source.

Legend:
Experiment in all cases: MIC (Minimum Inhibitory Concentration)
Assay type in all cases: cell-based
Candida albicans = system: Candida albicans
Excerpt: (§1) In addition they may be used for combatting plant diseases, in particular as fungicides. A list of MIC (Minimum Inhibitory Concentration) values for a number of microorganisms is listed herebelow. The figures in the column headings refer to the compounds prepared according to the experimental examples in comparison with the spectrum of 1-[2-(2,4-dichlorophenyl)-2-{(2,4-dichlorophenyl)-methoxy} -ethyl7-1H-imidazole (better known under the name of miconazole, c.f. Merck Index 9th Ed. page 6047) or natamycin (pimaricin, c.f. Merck Index 9th Ed. page 7233).

Pasteurella multocida = Pasteurella multocida A 723; read-out: MIC values
Excerpt: as §1

Trichophyton equinum = system: Trichophyton equinum
Excerpt: as §1

[1] = system: Trichophyton mentagrophytus
Excerpt: as §1

Trichophyton quickeaneum = Trichophyton quickeaneum A 2040; read-out: MIC values
Excerpt: as §1

Trichophyton rubrum = system: Trichophyton rubrum
Excerpt: as §1

[2] = system: Trichophyton schoenleinii; conditions: Trichophyton schoenleinii 435-63; read-out: MIC values
Excerpt: as §1

[3] = system: Trichophyton soudanese joyeux; conditions: Trichophyton soudanese joyeux 440-63; read-out: MIC values
Excerpt: as §1

Trichophyton tonsurans = Trichophyton tonsurans 561-50; read-out: MIC values
Excerpt: as §1

Trichophyton verrucosum = system: Trichophyton verrucosum
Excerpt: as §1

Trichophyton violoceum = Trichophyton violoceum 442-62; read-out: MIC values
Excerpt: as §1

[4] = system: Streptococcus haemolyticus; conditions: Streptococcus haemolyticus A 1088; read-out: MIC values
Excerpt: as §1

[5] = Candida albicans A 7, read-out: MIC values
[6] = Candida albicans A 3140, read-out: MIC values
[7] = Candida albicans A 3141, read-out: MIC values
[8] = Candida albicans A 3144, read-out: MIC values
[9] = Candida albicans A 3145, read-out: MIC values
[10] = Candida albicans A 3165, read-out: MIC values
[11] = Candida albicans A 3166, read-out: MIC values
[12] = Candida albicans A 3167, read-out: MIC values
[13] = Candida albicans A 3168, read-out: MIC values
[14] = Candida albicans A 3169, read-out: MIC values
[15] = Candida albicans A 3171, read-out: MIC values
[16] = Candida albicans A 3190, read-out: MIC values
[17] = Candida albicans A 3191, read-out: MIC values
[18] = Candida albicans A 3194, read-out: MIC values
[19] = Candida albicans A 3196, read-out: MIC values
[20] = Trichophyton equinum 182-76, read-out: MIC values
[21] = Trichophyton equinum 856-71, read-out: MIC values
[22] = Trichophyton mentagrophytus 367-68, read-out: MIC values
[23] = Trichophyton mentagrophytus 421-67, read-out: MIC values
[24] = Trichophyton mentagrophytus A 3252, read-out: MIC values
[25] = Trichophyton mentagrophytus R 177, read-out: MIC values
[26] = Trichophyton mentagrophytus R 178, read-out: MIC values
[27] = Trichophyton mentagrophytus RRL 305, read-out: MIC values
[28] = Trichophyton rubrum 218-65, read-out: MIC values
[29] = Trichophyton rubrum 494-62, read-out: MIC values
[30] = Trichophyton rubrum A 810, read-out: MIC values
[31] = Trichophyton verrucosum 134-66, read-out: MIC values
[32] = Trichophyton verrucosum A 2922, read-out: MIC values
[33] = Candida albicans A 3142, read-out: MIC values
[34] = Candida albicans A 3143, read-out: MIC values
[35] = Candida albicans A 3184, read-out: MIC values
[36] = Candida albicans A 3192, read-out: MIC values

SMILES	MIC (Candida albicans; [5]) [µg/mL]	MIC (Candida albicans; [6]) [µg/mL]	MIC (Candida albicans; [7]) [µg/mL]	MIC (Candida albicans; [8]) [µg/mL]	MIC (Candida albicans; [9]) [µg/mL]	MIC (Candida albicans; [10]) [µg/mL]	MIC (Candida albicans; [11]) [µg/mL]	MIC (Candida albicans; [12]) [µg/mL]	MIC (Candida albicans; [13]) [µg/mL]	MIC (Candida albicans; [14]) [µg/mL]	MIC (Candida albicans; [15]) [µg/mL]	MIC (Candida albicans; [16]) [µg/mL]	MIC (Candida albicans; [17]) [µg/mL]	MIC (Candida albicans; [18]) [µg/mL]	MIC (Candida albicans; [19]) [µg/mL]	MIC (Trichophyton equinum; [20]) [µg/mL]	MIC [1, 22] [µg/mL]	MIC [1, 23] [µg/mL]	MIC [1, 24] [µg/mL]	MIC [1, 25] [µg/mL]	other results
[C-]#[N+]C(=C(C)CC)S(=O)(=O)c1ccc(C)cc1 [Example 27a, 1-isocyano-2-methyl-1-(4-toluenesulphonyl)-1-butene]	0.2 (≈ 0.802 µM)	0.8 (≈ 3.21 µM)	< 0.05	0.2 (≈ 0.802 µM)	< 0.05	0.8 (≈ 3.21 µM)	3 (≈ 12 µM)	0.2 (≈ 0.802 µM)	0.2 (≈ 0.802 µM)	0.1 (≈ 0.401 µM)	0.2 (≈ 0.802 µM)	< 0.05	0.1 (≈ 0.401 µM)	< 0.05	0.4 (≈ 1.6 µM)	0.4 (≈ 1.6 µM)	6 (≈ 24.1 µM)	6 (≈ 24.1 µM)	6 (≈ 24.1 µM)	6 (≈ 24.1 µM)	MIC (Pasteurella multocida): 1.5 µg/mL (≈ 6.02 µM); MIC (Trichophyton equinum; [21]): < 0.05 µg/mL; MIC [1, 26]: 6 µg/mL (≈ 24.1 µM); MIC [1, 27]: 3 µg/mL (≈ 12 µM); MIC (Trichophyton quickeaneum): 0.1 µg/mL (≈ 0.401 µM); MIC (Trichophyton rubrum; [28]): 0.4 µg/mL (≈ 1.6 µM); MIC (Trichophyton rubrum; [29]): 0.4 µg/mL (≈ 1.6 µM); MIC (Trichophyton rubrum; [30]): 0.4 µg/mL (≈ 1.6 µM); MIC [2]: 6 µg/mL (≈ 24.1 µM); MIC [3]: 6 µg/mL (≈ 24.1 µM); MIC (Trichophyton tonsurans): 3 µg/mL (≈ 12 µM); MIC (Trichophyton verrucosum; [31]): 0.8 µg/mL (≈ 3.21 µM); MIC (Trichophyton verrucosum; [32]): 6 µg/mL (≈ 24.1 µM); MIC (Trichophyton violoceum): 12.5 µg/mL (≈ 50.1 µM)
[C-]#[N+]C(=C(C)C)S(=O)(=O)c1ccc(C)cc1 [Example 5, 1-isocyano-2-methyl-1-(4-toluenesulphonyl)-1-propene]	3 (≈ 12.7 µM)	12.5 (≈ 53.1 µM)	25 (≈ 106 µM)	25 (≈ 106 µM)	12.5 (≈ 53.1 µM)	12.5 (≈ 53.1 µM)	12.5 (≈ 53.1 µM)	25 (≈ 106 µM)	25 (≈ 106 µM)	25 (≈ 106 µM)	12.5 (≈ 53.1 µM)	12.5 (≈ 53.1 µM)	25 (≈ 106 µM)	25 (≈ 106 µM)	25 (≈ 106 µM)	3 (≈ 12.7 µM)	1.5 (≈ 6.37 µM)	1.5 (≈ 6.37 µM)	0.8 (≈ 3.4 µM)	6 (≈ 25.5 µM)	MIC (Candida albicans; [33]): 25 µg/mL (≈ 106 µM); MIC (Candida albicans; [34]): 25 µg/mL (≈ 106 µM); MIC (Candida albicans; [35]): 12.5 µg/mL (≈ 53.1 µM); MIC (Candida albicans; [36]): 25 µg/mL (≈ 106 µM); MIC (Trichophyton equinum; [21]): 6 µg/mL (≈ 25.5 µM); MIC [1, 26]: 50 µg/mL (≈ 212 µM); MIC [1, 27]: 3 µg/mL (≈ 12.7 µM); MIC (Trichophyton quickeaneum): 0.8 µg/mL (≈ 3.4 µM); MIC (Trichophyton rubrum; [28]): 0.4 µg/mL (≈ 1.7 µM); MIC (Trichophyton rubrum; [29]): 0.4 µg/mL (≈ 1.7 µM); MIC [2]: 0.2 µg/mL (≈ 0.85 µM); MIC [3]: 12.5 µg/mL (≈ 53.1 µM); MIC (Trichophyton tonsurans): < 0.1 µg/mL; MIC (Trichophyton violoceum): 0.1 µg/mL (≈ 0.425 µM)
[C-]#[N+]C(C1=CCOCC1)S(=O)(=O)c1ccc(C)cc1 (stereo not drawn) [Example 14b, α-(2,3-dihydro-6H-pyran-4-yl)-a-(4-toluenesulphonyl)-methylisocyanide]	6 (≈ 21.6 µM)	6 (≈ 21.6 µM)	12.5 (≈ 45.1 µM)	25 (≈ 90.1 µM)	12.5 (≈ 45.1 µM)	6 (≈ 21.6 µM)	6 (≈ 21.6 µM)	6 (≈ 21.6 µM)	6 (≈ 21.6 µM)	6 (≈ 21.6 µM)	6 (≈ 21.6 µM)	12.5 (≈ 45.1 µM)	25 (≈ 90.1 µM)	12.5 (≈ 45.1 µM)	25 (≈ 90.1 µM)	25 (≈ 90.1 µM)	25 (≈ 90.1 µM)	25 (≈ 90.1 µM)	25 (≈ 90.1 µM)	25 (≈ 90.1 µM)	MIC (Candida albicans; [33]): 6 µg/mL (≈ 21.6 µM); MIC (Candida albicans; [34]): 6 µg/mL (≈ 21.6 µM); MIC (Candida albicans; [35]): 6 µg/mL (≈ 21.6 µM); MIC (Candida albicans; [36]): 6 µg/mL (≈ 21.6 µM); MIC (Pasteurella multocida): 6 µg/mL (≈ 21.6 µM); MIC [4]: 100 µg/mL (≈ 361 µM); MIC (Trichophyton equinum; Trichophyton equinum 441-51, read-out: MIC values): 3 µg/mL (≈ 10.8 µM); MIC [1, 26]: 50 µg/mL (≈ 180 µM); MIC (Trichophyton quickeaneum): 25 µg/mL (≈ 90.1 µM); MIC (Trichophyton rubrum; [28]): 3 µg/mL (≈ 10.8 µM); MIC (Trichophyton rubrum; [29]): 25 µg/mL (≈ 90.1 µM); MIC (Trichophyton rubrum; [30]): 12.5 µg/mL (≈ 45.1 µM); MIC [2]: 6 µg/mL (≈ 21.6 µM); MIC (Trichophyton tonsurans): 0.4 µg/mL (≈ 1.44 µM); MIC (Trichophyton verrucosum; [31]): 3 µg/mL (≈ 10.8 µM); MIC (Trichophyton verrucosum; [32]): 1.5 µg/mL (≈ 5.41 µM); MIC (Trichophyton violoceum): 12.5 µg/mL (≈ 45.1 µM)
